Measurements as given in patent US6506772B1, “Substituted [1,2,4]triazolo[1,5a]pyridine derivatives with activity as adenosine receptor ligands” (Hoffmann-La Roche Inc., priority 2000, dated 2003).

Experiments:
[1] = target: T1, human adenosine A2A receptor (Homo sapiens, UniProt P29274); experiment: Human adenosine A2A receptor [3H]-SCH-58261 binding assay; settings: for Ki: affinity to human adenosine A2A receptor, read-out: Ki HA2A; for selectivity (A1/A2a): calculated ratio of the affinity to the HA1 receptor to the HA2a receptor
T1 construct: expressed in transfected cells; host or cells: CHO cells, Semliki Forest virus expression system; membrane preparation

HA1 adenosine receptor = target: T2, HA1 adenosine receptor (Homo sapiens, UniProt P30542); experiment: Human adenosine A1 receptor affinity (Ki hA1); type: binding; settings: affinity to human adenosine A1 receptor
T2 sequence (P30542 1-326): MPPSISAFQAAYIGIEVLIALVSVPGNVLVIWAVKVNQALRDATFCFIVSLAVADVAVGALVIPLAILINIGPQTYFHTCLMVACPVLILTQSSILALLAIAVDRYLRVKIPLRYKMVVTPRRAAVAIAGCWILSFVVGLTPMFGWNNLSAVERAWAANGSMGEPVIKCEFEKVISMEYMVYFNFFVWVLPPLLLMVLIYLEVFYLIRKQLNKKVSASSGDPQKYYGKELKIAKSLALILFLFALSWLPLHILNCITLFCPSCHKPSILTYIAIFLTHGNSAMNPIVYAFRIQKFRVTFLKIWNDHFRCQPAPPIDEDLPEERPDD

T1 sequence (P29274 whole entry): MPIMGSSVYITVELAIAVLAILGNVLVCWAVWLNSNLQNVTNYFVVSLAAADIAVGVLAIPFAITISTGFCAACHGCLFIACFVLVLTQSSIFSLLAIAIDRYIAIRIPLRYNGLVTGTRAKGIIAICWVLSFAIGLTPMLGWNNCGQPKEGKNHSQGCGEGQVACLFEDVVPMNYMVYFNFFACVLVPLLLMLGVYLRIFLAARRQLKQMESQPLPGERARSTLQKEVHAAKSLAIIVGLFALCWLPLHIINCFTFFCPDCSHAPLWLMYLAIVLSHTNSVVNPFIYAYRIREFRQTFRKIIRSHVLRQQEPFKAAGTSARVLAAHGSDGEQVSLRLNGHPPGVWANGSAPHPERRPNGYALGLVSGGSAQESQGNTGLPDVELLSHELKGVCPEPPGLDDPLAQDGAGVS

| Structure (SMILES) | Ki [1] | selectivity (A1/A2a) [1] | Ki (HA1 adenosine receptor) |
| --- | --- | --- | --- |
| CC(C)N(Cc1ccccc1)C(=O)c1cc(N)n2nc(-c3ccco3)nc2c1 [Example 136, 5-Amino-2-furan-2-yl-[1,2,4]triazolo[1,5-a]pyridine-7-carboxylic acid benzyl-isopropyl-amide] | 0.012 µM | 18.5 | 0.222 µM |
| CCCCNC(=O)c1cc(N)n2nc(-c3ccc(C)o3)nc2c1 [Example 137, 5-Amino-2-(5-methyl-furan-2-yl)-[1,2,4]triazolo[1,5-a]pyridine-7-carboxylic acid butylamide] | 0.011 µM | 19.8 | 0.218 µM |
| Cc1ccc(-c2nc3cc(C(=O)NC4CCCCC4)cc(N)n3n2)o1 [Example 138, 5-Amino-2-(5-methyl-furan-2-yl)-[1,2,4]triazolo[1,5-a]pyridine-7-carboxylic acid cyclohexylamide] | 0.123 µM | 10.3 | 1.27 µM |
| Cc1ccc(-c2nc3cc(C(=O)N4CCOCC4)cc(N)n3n2)o1 [Example 139, [5-Amino-2-(5-methyl-furan-2-yl)-[1,2,4]triazolo[1,5-a]pyridin-7-yl]-morpholin-4-yl-methanone] | 0.0745 µM | 23.5 | 1.75 µM |
| Cc1ccc(-c2nc3cc(C(=O)N(C)Cc4ccccc4)cc(N)n3n2)o1 [Example 140, 5-Amino-2-(5-methyl-furan-2-yl)-[1,2,4]triazolo[1,5-a]pyridine-7-carboxylic acid benzyl-methyl-amide] | 0.0073 µM | 14.7 | 0.107 µM |
| Cc1ccc(-c2nc3cc(C(=O)N(Cc4ccccc4)C(C)C)cc(N)n3n2)o1 [Example 141, 5-Amino-2-(5-methyl-furan-2-yl)-[1,2,4]triazolo[1,5-a]pyridine-7-carboxylic acid benzyl-isopropyl-amide] | 0.0059 µM | 20.8 | 0.123 µM |
| COc1ccc(CNC(=O)c2cc(N)n3nc(-c4ccc(C)o4)nc3c2)cc1OC [Example 142, 5-Amino-2-(5-methyl-furan-2-yl)-[1,2,4]triazolo[1,5-a]pyridine-7-carboxylic acid 3,4-dimethoxy-benzylamide] | 0.281 µM | 14.6 | 4.12 µM |
| CCN(C(=O)c1cc(N)n2nc(-c3sccc3C)nc2c1)C(C)C [Example 143, 5-Amino-2-(3-methyl-thiophen-2-yl)-[1,2,4]triazolo[1,5-a]pyridine-7-carboxylic acid ethyl-isopropyl-amide] | 0.121 µM | 9.0 | 1.09 µM |
| Cc1ccsc1-c1nc2cc(C(=O)N(Cc3ccccc3)C(C)C)cc(N)n2n1 [Example 144, 5-Amino-2-(3-methyl-thiophen-2-yl)-[1,2,4]triazolo[1,5-a]pyridine-7-carboxylic acid benzyl-isopropyl-amide] | 0.0634 µM | 12.9 | 0.819 µM |
| CCCCNC(=O)c1cc(N)n2nc(-c3ccccc3)nc2c1 [Example 145, 5-Amino-2-phenyl-[1,2,4]triazolo[1,5-a]pyridine-7-carboxylic acid butylamide] | 0.026 µM | 4.1 | 0.106 µM |
| CCN(CC)C(=O)c1cc(N)n2nc(-c3ccccc3)nc2c1 [Example 146, 5-Amino-2-phenyl-[1,2,4]triazolo[1,5-a]pyridine-7-carboxylic acid diethylamide] | 0.13 µM | 15.0 | 1.96 µM |
| Nc1cc(C(=O)NC2CCCCC2)cc2nc(-c3ccccc3)nn12 [Example 147, 5-Amino-2-phenyl-[1,2,4]triazolo[1,5-a]pyridine-7-carboxylic acid cyclohexylamide] | 0.14 µM | 3.2 | 0.453 µM |
| CN(C(=O)c1cc(N)n2nc(-c3ccccc3)nc2c1)C1CCCCC1 [Example 148, 5-Amino-2-phenyl-[1,2,4]triazolo[1,5-a]pyridine-7-carboxylic acid cyclohexyl-methyl-amide] | 0.148 µM | 8.1 | 1.2 µM |
| Nc1cc(C(=O)NC2CCc3ccccc32)cc2nc(-c3ccccc3)nn12 (stereo not drawn) [Example 149, 5-Amino-2-phenyl-[1,2,4]triazolo[1,5-a]pyridine-7-carboxylic acid indan-1-ylamide] | 0.0574 µM | 1.7 | 0.0981 µM |
| Nc1cc(C(=O)N2CCCC2)cc2nc(-c3ccccc3)nn12 [Example 150, (5-Amino-2-phenyl-[1,2,4]triazolo[1,5-a]pyridin-7-yl)-pyrrolidin-1-yl-methanone] | 0.0823 µM | 8.6 | 0.711 µM |
| Nc1cc(C(=O)N2CCCCC2)cc2nc(-c3ccccc3)nn12 [Example 151, (5-Amino-2-phenyl-[1,2,4]triazolo[1,5-a]pyridin-7-yl)-piperidin-1-yl-methanone] | 0.0855 µM | 10.8 | 0.928 µM |
| CN(Cc1ccccc1)C(=O)c1cc(N)n2nc(-c3ccccc3)nc2c1 [Example 152, 5-Amino-2-phenyl-[1,2,4]triazolo[1,5-a]pyridine-7-carboxylic acid benzyl-methyl-amide] | 0.0328 µM | 11.2 | 0.367 µM |
| CCN(CC)C(=O)c1cc(N)n2nc(-c3ccoc3)nc2c1 [Example 153, 5-Amino-2-furan-3-yl-[1,2,4]triazolo[1,5-a]pyridine-7-carboxylic acid diethylamide] | 0.301 µM | 16.0 | 4.8 µM |
| Nc1cc(C(=O)NC2CCCCC2)cc2nc(-c3ccoc3)nn12 [Example 154, 5-Amino-2-furan-3-yl-[1,2,4]triazolo[1,5-a]pyridine-7-carboxylic acid cyclohexylamide] | 0.0881 µM | 13.3 | 1.18 µM |
| Nc1cc(C(=O)N2CCCCC2)cc2nc(-c3ccoc3)nn12 [Example 155, (5-Amino-2-furan-3-yl-[1,2,4]triazolo[1,5-a]pyridin-7-yl)-piperidin-1-yl-methanone] | 0.301 µM | 19.4 | 5.85 µM |
| Nc1cc(C(=O)NCc2ccccc2Cl)cc2nc(-c3ccoc3)nn12 [Example 156, 5-Amino-2-furan-3-yl-[1,2,4]triazolo[1,5-a]pyridine-7-carboxylic acid 2-chloro-benzylamide] | 0.0171 µM | 13.3 | 0.228 µM |
| Nc1cc(C(=O)NCc2ccccc2Br)cc2nc(-c3ccoc3)nn12 [Example 157, 5-Amino-2-furan-3-yl-[1,2,4]triazolo[1,5-a]pyridine-7-carboxylic acid 2-bromo-benzylamide] | 0.018 µM | 12.8 | 0.231 µM |
| CCCCNC(=O)c1cc(N)n2nc(-c3ccccc3O)nc2c1 [Example 158, 5-Amino-2-(2-hydroxy-phenyl)-[1,2,4]triazolo[1,5-a]pyridine-7-carboxylic acid butylamide] | 0.0875 µM | 3.0 | 0.258 µM |
| Nc1cc(C(=O)NCc2ccccc2Cl)cc2nc(-c3ccccc3O)nn12 [Example 159, 5-Amino-2-(2-hydroxy-phenyl)-[1,2,4]triazolo[1,5-a]pyridine-7-carboxylic acid 2-chloro-benzylamide] | 0.105 µM | 2.7 | 0.279 µM |
